Results: PMC4672351, “Drug-Drug Interaction Potentials of Tyrosine Kinase Inhibitors via Inhibition of UDP-Glucuronosyltransferases” (Scientific Reports, 2015)
Where “and” joins values, the source holds several entries; their conditions need not be identical. Equal values may be shown once.

Legend:
[1] = target: T1, UGT1A4 (Homo sapiens, UniProt P22310); test: Prediction of DDI risk (AUCi/AUC) from in vitro data, UGT1A4 substrates; design: purchased BD Gentest (Woburn, MA); host or cells: baculovirus-infected insect cells; conditions: fm is 1
T1 sequence (P22310 29-534): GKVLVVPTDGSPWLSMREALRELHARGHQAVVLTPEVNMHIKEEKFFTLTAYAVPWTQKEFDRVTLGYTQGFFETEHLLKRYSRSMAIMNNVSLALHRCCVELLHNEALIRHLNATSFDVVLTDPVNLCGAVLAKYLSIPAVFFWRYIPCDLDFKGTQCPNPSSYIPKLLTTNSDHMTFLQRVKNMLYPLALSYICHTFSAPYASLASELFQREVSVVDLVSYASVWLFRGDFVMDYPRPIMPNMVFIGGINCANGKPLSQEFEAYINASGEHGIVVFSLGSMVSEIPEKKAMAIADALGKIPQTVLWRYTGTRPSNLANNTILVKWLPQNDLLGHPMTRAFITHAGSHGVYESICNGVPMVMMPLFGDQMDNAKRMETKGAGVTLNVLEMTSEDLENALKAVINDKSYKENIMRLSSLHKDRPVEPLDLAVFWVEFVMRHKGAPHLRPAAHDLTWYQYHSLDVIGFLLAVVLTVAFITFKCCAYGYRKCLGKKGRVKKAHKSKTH
Description: The ratio was calculated based on the eq.

[2] = target: T2, UGT1A9 (Homo sapiens, UniProt O60656); conditions: 4-MU substrate
T2 sequence (O60656 26-530): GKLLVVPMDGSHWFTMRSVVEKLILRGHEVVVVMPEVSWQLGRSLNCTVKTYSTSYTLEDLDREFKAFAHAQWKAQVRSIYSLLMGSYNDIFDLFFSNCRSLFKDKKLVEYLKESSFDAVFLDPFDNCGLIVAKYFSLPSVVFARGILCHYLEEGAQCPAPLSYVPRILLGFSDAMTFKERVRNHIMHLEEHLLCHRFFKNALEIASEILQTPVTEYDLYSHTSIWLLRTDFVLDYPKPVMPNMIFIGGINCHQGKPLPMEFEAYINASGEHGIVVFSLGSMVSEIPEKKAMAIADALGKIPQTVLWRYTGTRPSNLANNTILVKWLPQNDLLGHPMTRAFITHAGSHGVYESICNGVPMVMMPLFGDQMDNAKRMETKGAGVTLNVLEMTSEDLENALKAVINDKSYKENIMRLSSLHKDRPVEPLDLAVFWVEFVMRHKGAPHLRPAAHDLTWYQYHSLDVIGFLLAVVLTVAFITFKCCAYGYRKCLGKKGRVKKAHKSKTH

[3] = target: T3, UGT1A1 (Homo sapiens, UniProt P22309); conditions: fm is 1; clinical doses
T3 sequence (P22309 26-533): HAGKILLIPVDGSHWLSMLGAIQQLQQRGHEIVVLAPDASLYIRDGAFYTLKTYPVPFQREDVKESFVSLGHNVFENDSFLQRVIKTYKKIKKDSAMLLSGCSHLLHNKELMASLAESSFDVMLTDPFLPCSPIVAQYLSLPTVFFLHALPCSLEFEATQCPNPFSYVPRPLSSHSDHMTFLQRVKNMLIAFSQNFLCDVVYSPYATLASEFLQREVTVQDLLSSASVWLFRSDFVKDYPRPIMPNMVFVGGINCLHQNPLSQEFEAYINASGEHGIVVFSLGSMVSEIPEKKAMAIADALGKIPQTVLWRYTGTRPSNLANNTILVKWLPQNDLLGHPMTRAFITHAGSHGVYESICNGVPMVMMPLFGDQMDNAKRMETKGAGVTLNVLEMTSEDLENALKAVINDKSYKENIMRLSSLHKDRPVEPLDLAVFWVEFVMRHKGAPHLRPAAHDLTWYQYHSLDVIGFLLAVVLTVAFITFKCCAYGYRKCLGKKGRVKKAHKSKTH

[4] = target: T3, UGT1A1; conditions: SN-38 substrate
Description: SN-38 glucuronidation activity was determined with a slight modification of a previously published method[13].

[5] = clinical study; ref [16]; cited from earlier work

## CNC(=O)c1ccccc1Sc1ccc2c(/C=C/c3ccccn3)n[nH]c2c1 [Axitinib, axitinib]
[1]
  Predicted AUCi/AUC ratio of UGT1A4 substrates: ~1

## COc1cc2c(Nc3ccc(Br)cc3F)ncnc2cc1OCC1CCN(C)CC1 [Vandetanib, vandetanib]
[2]
  inhibition type, UGT1A9: mixed

## CS(=O)(=O)CCNCc1ccc(-c2ccc3ncnc(Nc4ccc(OCc5cccc(F)c5)c(Cl)c4)c3c2)o1 [Lapatinib, lapatinib]
[3]
  Predicted increase in AUC of UGT1A1 substrates (4-MU and SN-38): ~ 25%
[4]
  inhibition type, UGT1A1: non-competitive
[5]
  Increase in the AUC of SN-38 on co-administration with irinotecan: 41% and ~ 40%
